The subject of assay [1] is ISC-enriched organoids. Description: Primary screen, 384-well 2.5-D organoid differentiation (ENR+CD, 6 days): carbachol-induced lysozyme secretion (LYZ.S). In kind it is cell-based, murine. To be noted: primary screen; for Dose.FC.LYZ.S: FC vs plate median; for Dose.FC.LYZ.S (log 2 fold change): vs plate median. The text has this:
(§1) High-throughput screening.

The subject of assay [2] is ISC-enriched organoids. The assay can be described thus: Primary screen, 384-well 2.5-D organoid differentiation (ENR+CD, 6 days, Target Selective Inhibitor Library, vs whole-plate median): ATP (CellTiter-Glo 3D, CTG). To be noted: for Dose.FC.CTG / Z.CTG (standard z score) / Dose.FC.CTG (log 2 fold change): primary screen; for Dose.FC.CTG: FC vs plate median; for Z.CTG: standard z score of FC; for Dose.FC.CTG (log 2 fold change): vs plate median. On the technique in general: ATP-based viability assays read luminescence as a measure of living cells.

Assay [3] deals with ISC-enriched organoids. Description: Primary screen, 384-well 2.5-D organoid differentiation (ENR+CD, 6 days): basal lysozyme secretion (LYZ.NS). Conditions: for Dose.FC.LYZ.NS / Z.LYZ.NS (standard z score) / Dose.FC.LYZ.NS (log 2 fold change): primary screen; for Dose.FC.LYZ.NS: FC vs plate median; for Z.LYZ.NS: standard z score of FC; for Dose.FC.LYZ.NS (log 2 fold change): vs plate median. The format is cell-based, murine.
Text: as §1

Structures are written as SMILES.

Here are results for 3 compounds from patent US20230398130A1, “METHODS AND COMPOSITIONS FOR DIFFERENTIATING STEM CELLS” (Massachusetts Institute of Technology, priority 2020, published 2023).

Consider `O=C(NNc1ccccc1)c1ccncc1` [PluriSIn #1 (NSC 14613)], for which the Dose.FC.LYZ.S in assay [1] (Dose 0.08 uM) is on record as 0.057 log 2 fold change; in assay [1] (Dose 0.40 uM) it was −0.007 log 2 fold change; in assay [1] (Dose 2.00 uM) it was −0.133 log 2 fold change; in assay [1] (Dose 10.00 uM), −0.372 log 2 fold change. Besides, the Dose.FC.CTG in assay [2] (Dose 0.08 uM) is −0.146 log 2 fold change; in assay [2] (Dose 0.40 uM) it was −0.095 log 2 fold change; in assay [2] (Dose 2.00 uM), −0.433 log 2 fold change; in assay [2] (Dose 10.00 uM), −0.853 log 2 fold change. For the same compound, the Z.CTG in assay [2] (Dose 0.08 uM) was −0.349; in assay [2] (Dose 0.40 uM) it was −0.226; in assay [2] (Dose 2.00 uM), −1.035; in assay [2] (Dose 10.00 uM) it was −2.038. Besides, the Dose.FC.LYZ.NS in assay [3] (Dose 0.08 uM) is 0.083 log 2 fold change; in assay [3] (Dose 0.40 uM), 0.004 log 2 fold change; in assay [3] (Dose 2.00 uM), −0.107 log 2 fold change; in assay [3] (Dose 10.00 uM) it was −0.284 log 2 fold change. The Z.LYZ.NS in assay [3] (Dose 0.08 uM) is 0.720; in assay [3] (Dose 0.40 uM), 0.039; in assay [3] (Dose 2.00 uM), −0.929; in assay [3] (Dose 10.00 uM), −2.475.
`CC(C)(C)c1cc(NC(=O)Nc2ccc(-c3cn4c(n3)sc3cc(OCCN5CCOCC5)ccc34)cc2)no1` [Quizartinib (AC220)]: the “Dose.FC.LYZ.S (log 2 fold change)” value in assay [1] (Dose 0.08 uM) was 0.154; in assay [1] (Dose 0.40 uM) it was 0.083; in assay [1] (Dose 2.00 uM) it was −0.077; in assay [1] (Dose 10.00 uM), −0.200. Also, the “Z.CTG (standard z score)” value is given as 0.838 in assay [2] (Dose 0.08 uM), 0.355 in assay [2] (Dose 0.40 uM), −0.841 in assay [2] (Dose 2.00 uM) and −1.539 in assay [2] (Dose 10.00 uM). Moreover, the “Dose.FC.CTG (log 2 fold change)” value is given as 0.351 in assay [2] (Dose 0.08 uM), 0.149 in assay [2] (Dose 0.40 uM), −0.352 in assay [2] (Dose 2.00 uM) and −0.644 in assay [2] (Dose 10.00 uM). For the same compound, the “Z.LYZ.NS (standard z score)” value in assay [3] (Dose 0.08 uM) is on record as 0.836; in assay [3] (Dose 0.40 uM), 0.341; in assay [3] (Dose 2.00 uM), −0.452; in assay [3] (Dose 10.00 uM), −1.505. Moreover, the “Dose.FC.LYZ.NS (log 2 fold change)” value is listed as 0.096 in assay [3] (Dose 0.08 uM), 0.039 in assay [3] (Dose 0.40 uM), −0.052 in assay [3] (Dose 2.00 uM) and −0.173 in assay [3] (Dose 10.00 uM).
Consider `O=C(NCc1cccc(O)c1)Nc1nc(-c2ccncc2)cs1` [RKI-1447], for which the “Dose.FC.LYZ.S (log 2 fold change)” value was −0.056 in assay [1] (Dose 0.08 uM), −0.064 in assay [1] (Dose 0.40 uM), −0.017 in assay [1] (Dose 2.00 uM) and −0.297 in assay [1] (Dose 10.00 uM). Moreover, the “Z.CTG (standard z score)” value in assay [2] (Dose 0.08 uM) was −0.948; in assay [2] (Dose 0.40 uM) it was −0.441; in assay [2] (Dose 2.00 uM), −0.540; in assay [2] (Dose 10.00 uM) it was −0.816. The “Dose.FC.CTG (log 2 fold change)” value in assay [2] (Dose 0.08 uM) is recorded as −0.397; in assay [2] (Dose 0.40 uM) it was −0.184; in assay [2] (Dose 2.00 uM), −0.226; in assay [2] (Dose 10.00 uM), −0.342. Also, the “Z.LYZ.NS (standard z score)” value is recorded as −0.055 in assay [3] (Dose 0.08 uM), −0.803 in assay [3] (Dose 0.40 uM), −0.077 in assay [3] (Dose 2.00 uM) and −1.594 in assay [3] (Dose 10.00 uM). The “Dose.FC.LYZ.NS (log 2 fold change)” value in assay [3] (Dose 0.08 uM) is recorded as −0.006; in assay [3] (Dose 0.40 uM), −0.092; in assay [3] (Dose 2.00 uM), −0.009; in assay [3] (Dose 10.00 uM), −0.183.
